In series [1] the test system is RS virus. The experiment in a line: RS virus cytopathic effect in CV-1 cells. It is filed as cell-based, A2 strain. Conditions: 50 μM; 8 days post infection; over 50% of untreated monolayer destroyed. An excerpt:
(§1) This reduction of cytopathology was even more obvious in RS virus infected CV-1 cells examined at 8 days post infection. It was observed that in untreated infected cultures over 50% of the monolayer was destroyed during the multiple cycles of RS virus growth.
For orientation: Protection from cytopathic effect is a common read-out in antiviral testing.

Another series deals with P-3. The experiment in a line: P-3 yield in CV-1 cells maintained with compound 7. It is filed as cell-based, Parainfluenza type 3. The note with it: 50 μM for 6 days; challenged on day 6.
In another series the test system is HSV-1. The series is described as follows: HSV-1 yield in CV-1 cells maintained with compound 7. It is filed as cell-based, herpes simplex type 1. The note with it: 50 μM for 6 days; challenged on day 6.
The subject of a further series is MP mutant of HSV-1. The experiment in a line: Fusion of CV-1 cells by MP mutant of HSV-1. Type of series: cell-based, herpes simplex type 1.
From the text: A polykaryoctye-forming mutant (MP) of herpes simplex type 1 (HSV-1) was also employed.
as §1

Series [2] has as its system RS virus. The series is described as follows: Multiple cycle yields of RS virus (Table 5). It is filed as cell-based, A2 strain. Conditions: for Multiple cycle yield of RS virus, treated: 50 μM. Here is the method: (§2) Virus yields were quantitated by calculating 50 percent end points according to the method of Reed and Muench (A simple method for estimating fifty percent end-points. Am. J. Hyg. b 27, 493-497 (1938)). Briefly, 0.05 ml of virus diluted in MEM plus 10% FCS was added to micro-titer plates. This was followed by the addition of 40,000-60,000 Hep-2 cells in a volume of 0.05 ml. Plates were incubated at 36° C. for 5-7 days. Six or eight wells were used for each dilution. Standard error analysis was done according to the method of Pizzi (Sampling variation of the fifty percent endpoint determined by the Reed-Muench (Behrens) method. Human Biol. 22, 151-180 (1950)).
(§3) For these experiments, Hep- 2 cells were infected with either RS virus or
(§4) P-3 virus at multiplicities of infection of 0.1, 0.01, or 0.001. Following
(§5) a 2 hour adsorption period, the cultures received medium with or without a
(§6) The monolayers were harvested after
(§7) multiple cycles of replication and the yields were determined in
(§8) inhibitor-free microtiter assays.

The next series relates to P-3 virus. The series is described as follows: Multiple cycle yields of P-3 virus (Table 5). Type of series: cell-based, Parainfluenza type 3. The note with it: 50 μM. Here is the method: as §2, §3, §4, §5, §6, §7, §8
The test system of series [3] is RS virus. The experiment in a line: RS yields after pretreatment of Hep-2 cells at high multiplicities of infection. It is filed as cell-based, A2 strain. The text has this: RS virus. Even at high multiplicities of infection, pretreatment of Hep-2
reduction of RS yields. The results in Table 5 also reveal that the […]

The test system of series [4] is RS virus. It is filed as cell-based, A2 strain.
Series [5] relates to A549.
Series [6] deals with CV-1.
The subject of series [7] is BHK-21.
Series [8] concerns RS virus.
The test system of series [9] is RS virus. The series is described as follows: RS virus cytopathology / syncytium formation in Hep-2 cells (Table 3). The note with it: for Effect on RS virus cytopathology (syncytia): added 2 hour post infection.
The test system of another series is trypsin-like enzymes. Conditions: relative to benzamidine; cited from earlier work.
In a further series the test system is cell growth. The note with it: cited from earlier work.
Series [10] deals with A549. The experiment in a line: Toxicity on A549 cells. The note with it: A549 (human lung); data not shown.
Series [11] deals with CV-1. The series is described as follows: Toxicity on CV-1 cells. Conditions: CV-1 (monkey kidney); data not shown.
Series [12] has as its system BHK-21. The experiment in a line: Toxicity on BHK-21 cells. The note with it: BHK-21 (hamster kidney); data not shown.
The target of series [13] is plasminogen activator urokinase. The note with it: cited from earlier work.
A further series deals with pancreatic kallikrein. Conditions: cited from earlier work.
[14] abbreviates: 10 μM, moi 1-2, control titers 1-5 × 10^7.

“Also recorded” adds a separate entry of the source. Read-outs that look alike come from different tables or passages of the source.

Regarding `N=C(N)c1ccc2nc(Cc3nc4ccc(C(=N)N)cc4[nH]3)[nH]c2c1` [Compound 7, Bis(5-amidino-2-benzimidazolyl)methane], in the series on RS virus [1], the “RS virus cytopathic effect in CV-1 cells” value is “preservation of the monolayer with individual foci of infection appearing to be inhibited in their spread to uninfected areas of the culture”. The “P-3 yield after prolonged exposure of CV-1 cells” value with P-3 was “normal yields”. The “HSV-1 yield after prolonged exposure of CV-1 cells” value in the series with HSV-1 is listed as “normal yields”. Moreover, the “Effect on ability of MP mutant of HSV-1 to fuse cells” value with MP mutant of HSV-1 was “no effect”. In addition, the “Multiple cycle yield of RS virus, treated” value is listed as 1.1 × 10^4 TCID50 /ml in the series on RS virus [2] (moi 0.001, harvested 120 hr post infection, control 2.8 × 10^6); 1.2 × 10^5 TCID50 /ml in the series on RS virus [2] (moi 0.01, harvested 120 hr post infection, control 3.2 × 10^7); 6.3 × 10^6 TCID50 /ml in the series with RS virus [2] (moi 0.1, harvested 72 hr post infection, control 5.0 × 10^7). For the same compound, in the series with RS virus [2] (compound 7: 50 μM, low moi), the “Effect on multiple cycle yields / spreading of RS virus (in words)” value is on record as “considerably less; also recorded: greatly reduced the spreading”. The “Effect on yield of P-3 virus (in words)” value in the series with P-3 virus (low moi) is recorded as “slight, but consistent decrease”. Moreover, the “Multiple cycle yield of P-3 virus, treated” value is given as 6.3 × 10^7 TCID50 /ml in the series on P-3 virus (moi 0.001, harvested 72 hr post infection, control 2.0 × 10^8); 4.6 × 10^7 TCID50 /ml in the series with P-3 virus (moi 0.01, harvested 48 hr post infection, control 7.9 × 10^7); 7.9 × 10^7 TCID50 /ml in the series on P-3 virus (moi 0.1, harvested 48 hr post infection, control 3.5 × 10^8). Further, the log reduction at 50 µM in the series with RS virus [3] was 1 to 2. The “Behavior of RS virus replicated in presence of inhibitor versus control” value in the series with RS virus [4] (50 μM, RSI series vs C series) is recorded as “did not behave differently from the control”. In addition, in the series with RS virus [4] (compound 7: 50 μM), the “Effect on RS virus penetration (in words)” value is recorded as “penetration was delayed to a similar degree”. Also, the “RS virus titer, TCID50 (Log 10)” value in the series with RS virus [4] (titer #1: RSI + I + A, 50 μM) was 4.11 TCID50 (Log 10); in the series on RS virus [4] (titer #2: RSI + I + A (so in the source), 50 μM) it was 5.97 TCID50 (Log 10); in the series on RS virus [4] (titer #3: RSI - I + A, virus grown with 50 μM, none during adsorption), 5.50 TCID50 (Log 10); in the series with RS virus [4] (titer #4: RSI - I + A (so in the source), virus grown with 50 μM, none during adsorption), 5.97 TCID50 (Log 10); in the series on RS virus [4] (titer #5: C + I + A, untreated control #7 (C - I + A) 6.73), 5.59 TCID50 (Log 10); with RS virus [4] (titer #6: C + I - A, untreated control #8 (C - I + A as printed) 6.97), 6.92 TCID50 (Log 10). Moreover, the “Pattern of toxicity compared with Hep-2 cells” value in the series on A549 [5], in the series with CV-1 [6] and in the series on BHK-21 [7] was “identical pattern of toxicity” each time. Also, the “Single cycle yield of RS virus (RS virus titers)” value (“Single cycle yield of RS virus” for short) was 6.3 × 10^7 TCID50/ml with RS virus [8] (50 μM, moi 1-2, control titers 1-5 × 10^7) and 2.0 × 10^7 TCID50/ml in the series on RS virus [8] (500 μM, moi 1-2, control titers 1-5 × 10^7). Moreover, the “Inhibition of RS virus / RS virus-induced cell fusion (general statement)” value in the series on RS virus [9] is given as “inhibitively effective against RS virus”. The “Effect on RS virus cytopathology (syncytia)” value in the series on RS virus [9] (0.1 μM, Hep-2) is on record as “S”. In addition, in the series on RS virus [9] (1.0 μM, moi 1-2, 40 hrs post infection), the “Fusion of RS virus-infected cells (morphology)” value is on record as “abolition of fusion”. Further, the minimal effective concentration with RS virus [9] (HEp-2, read-out: Lowest concentration inhibiting syncytium formation) is 1 µM.
In the case of `N=C(N)c1ccc(OCCCCCOc2ccc(C(=N)N)cc2)cc1` [Compound 2, Pentamidine], in the series with RS virus [8], the “Single cycle yield of RS virus” value is 6.3 × 10^4 TCID50/ml. The “Effectiveness against trypsin-like enzymes versus benzamidine” value in the series on trypsin-like enzymes was “generally an order of magnitude more effective than benzamidine”. In the series with cell growth, the “Concentration reducing cell growth rates” value was 5 to 40 µM. The “Pattern of toxicity compared with Hep-2 cells” value in the series with A549 [10], in the series on CV-1 [11] and in the series on BHK-21 [12] was “identical pattern of toxicity” in each case. Moreover, the “Effect on RS virus cytopathology (syncytia)” value is listed as “S” in the series with RS virus [9] (0.1 μM, Hep-2) and “S” in the series on RS virus [9] (1.0 μM, Hep-2).
As to `N=C(N)c1ccc(OCCC(O)COc2ccc(C(=N)N)cc2)cc1` (centres unmarked) [Compound 5, 1,4-Di(4-amidinophenoxy)-2-butanol], the “Single cycle yield of RS virus” value in the series with RS virus [8] (setting [14]) is listed as 0.5 × 10^7 TCID50/ml; with RS virus [8] (100 μM, moi 1-2, control titers 1-5 × 10^7), 5.0 × 10^5 TCID50/ml. The Ki in [13] was 3.2 µM. The “Inhibition of RS virus / RS virus-induced cell fusion (general statement)” value in the series with RS virus [9] is “inhibitively effective against RS virus”. In addition, the “Effect on RS virus cytopathology (syncytia)” value with RS virus [9] (0.1 μM, Hep-2) is reported as “S”; in the series with RS virus [9] (1.0 μM, Hep-2) it was “S”. Moreover, in the series with RS virus [9] (Hep-2), the “Suppression of RS virus syncytia (in words)” value is “suppressed the appearance of the characteristic syncytia”.
Turning to `N=C(N)c1ccc(OCc2cccc(COc3ccc(C(=N)N)cc3I)c2)c(I)c1` [Compound 6, α,α'-Bis(4-amidino-2-iodophenoxy)-m-xylene], in the series with Hep-2 cells, the “Cytotoxicity relative to other compounds (in words)” value is listed as “as toxic as pentamidine”. Moreover, the “Pattern of toxicity compared with Hep-2 cells” value in the series with A549 [5], with CV-1 [6] and in the series with BHK-21 [7] was “identical pattern of toxicity” throughout. In addition, in the series on RS virus [8] (setting [14]), the “Single cycle yield of RS virus” value is 6.3 × 10^6 TCID50/ml. Further, the Ki at pancreatic kallikrein is 0.031 µM. Besides, the “Effect on RS virus cytopathology (syncytia)” value is listed as “S” in the series with RS virus [9] (0.1 μM, Hep-2) and “S” with RS virus [9] (1.0 μM, Hep-2).

In general, Ki refers to the equilibrium dissociation constant of an inhibitor or competing ligand from its target.

The values above are taken from patent publication US4619942A, “Inhibition of Respiratory Syncytial virus-induced cell fusion by amidino compounds” (priority 1983, dated 1986).
